Where two headings read alike, the source gives them in different places.
Legend:
[1] = system: IL-10 production, Raw-Blue macrophages; assay: IL-10 in RAW-Blue supernatants, ELISA; format: cell-based, murine; settings: increasing concentrations (1, 10 µg/mL), 24 h, dose-dependent
Method: (§1) The production of the cytokines IL-10 and TNF was also determined in cell supernatant from these samples with an ELISA assay (R&D System, Minneapolis, MN, USA; BD Pharmingen, Franklin Lakes, NJ, USA).

[2] = system: type-I Interferon (IFN) pathway, RAW-Lucia ISG cells; assay: Type-I interferon reporter assay in RAW-Lucia ISG cells, Lucia luciferase; format: cell-based, murine; settings: 24 h
Method: The effect of compound 1 on a type-I Interferon (IFN) reporter cell line stimulated with LPS was studied. RAW-Lucia cells express the Lucia luciferase enzyme under the control of the ISG54 promoter that responds to an IFN-stimulated response element, which is activated by several Interferon Regulatory Factors (IRFs).
RAW-Lucia ISG cells I (InvivoGen, San Diego, CA, USA) (100 μL) were cultured (100,000 cells/well) with DMEM at 37 °C in a 5% CO2 atmosphere to be stimulated with LPS (0.5 µg/mL) or a combination of LPS and compound 1 (1 and 10 µg/mL). Unstimulated cells were included as controls. After a 24 h incubation, the supernatants of each well were collected in order to quantify the luciferase activity by measuring the luminescence generated after the addition of the QUANTI-Luc reagent (InvivoGen) according to the manufacturer’s instructions with a PerkinElmer Victor3 luminometer.

[3] = system: nitric oxide production, Raw-Blue cells; assay: Nitric oxide production, Griess reaction on RAW-Blue supernatants; format: cell-based, murine
Method: The Griess reaction assay was performed to determine the effect of compound 1 on Nitric Oxide production. The same supernatant samples obtained in Section 2.8.2 (50 µL) were combined with 100 µL of Griess reagent. After incubation at room temperature for 30 min, absorbance was measured at 540 nm. A calibration curve was constructed with 1–250 µM of […] to extrapolate the nitrite concentration in the tested samples.

[4] = system: T. cruzi amastigotes (Tulahuen strain expressing β-galactosidase); assay: In vitro activity against amastigotes in infected Vero cells, β-galactosidase/CPRG readout; format: cell-based; settings: Trypanosoma cruzi, 120 h, intracellular amastigotes in Vero cells, 5 days
Method: Cultures of Trypanosoma cruzi epimastigotes (RA strain) were maintained through weekly passages in LIT medium supplemented with 10% fetal bovine serum at 28 °C. Trypanosoma cruzi bloodstream trypomastigotes (RA strain) were obtained from infected CF1 mice by cardiac puncture 15 days after infection at the peak of parasitemia while transfected trypomastigotes expressing β-galactosidase (Clone C4, e Tulahuen strain) were obtained from infected Vero cells.
The activity of compounds 1–3 on the intracellular forms of T. cruzi was evaluated. Vero cells (5 × 10^3/well) were infected with culture-derived trypomastigotes of T. cruzi from the Tulahuen strain expressing β-galactosidase (MOI: 10). After an O.N. incubation at 37 °C, and 5% CO2, non-infecting parasites were washed out and infected cells were incubated with increasing concentrations of the compounds (0.001–50 µg/mL). Cells treated with DMSO or benznidazole and non-infected cells were included as controls. After 5 days, cells were lysed with 1% Nonidet P-40, and chlorophenol red-β-D-galactopyranoside (CPRG) (100 μM) was added as a substrate for the β-galactosidase enzyme. The plate was then incubated for 4 h at 37 °C and β-galactosidase activity was determined by measuring the absorbance at 570 nm. The percentage of inhibition for each concentration of compounds was calculated as: 100 − {[(absorbance of treated infected cells)/(absorbance of untreated infected cells)] × 100}.

[5] = system: T. cruzi epimastigotes (RA strain); assay: In vitro activity against epimastigotes, [3H]-thymidine uptake assay; format: cell-based; settings: Trypanosoma cruzi
[6] = system: iNOS expression and NO production; parameters: method as in doi:10.7324/JAPS.2023.95766; settings: cited from earlier work
NF-kB, RAW-Blue cells = assay: NF-kB reporter assay in RAW-Blue cells, SEAP activity; format: cell-based, murine; settings: 24 h
Method: The effect of compound 1 was evaluated on a cell line that secretes alkaline phosphatase as a surrogate marker for the secretion of NF-kB. RAW-Blue cells (InvivoGen) (100 μL) were seeded in a 96-well plate (100,000 cells/well) with DMEM at 37 °C in a 5% CO2 atmosphere. […] Untreated cells were included as controls. The supernatants were collected and absorbance at 620–655 nm was measured after the addition of the Quanti-Blue reagent (InvivoGen) in a microplate reader. Levels of NF-kB were calculated following the manufacturer’s instructions.

[7] = system: TNF secretion, Raw-Blue macrophages; assay: TNF in RAW-Blue supernatants, capture ELISA; format: cell-based, murine; settings: 24 h
Method: as §1

[8] = Cytotoxicity assay on splenocytes, propidium iodide flow cytometry; format: cell-based, mice; settings: BALB/c, mouse, murine splenocytes
Method: The cytotoxicity of the isolated compounds was evaluated using splenocytes obtained from BALB/c mice. Primary cell cultures (1.5 × 10^5) were incubated with different concentrations of the isolated phytochemicals (5–200 μg/mL) in RPMI medium supplemented with 10% fetal bovine serum. After 48 h of incubation at 37 °C (5% CO2), the cells were harvested, washed once with PBS and stained with 2.5 μg/mL propidium iodide (PI) for 5 min at room temperature. Subsequently, cell death was assessed via flow cytometry using a BD FACSaria II cytometer. Cells incubated with DMSO were used as 100% viability control, and the death percentage was calculated according to the following formula: {1 − [(% PI^− cells treated)/(% PI^− cells of the viability control)] × 100}.

T. cruzi epimastigotes = assay: Transmission electron microscopy of treated epimastigotes; format: cell-based, Trypanosoma cruzi; settings: 20 µM
Method: All procedures were carried out according to Brengio et al.. Epimastigotes from T. cruzi were treated with 20 µM of compound 1 for either 48 h or 72 h. Then, the parasites were centrifuged at 1000× g for 10 min and fixed with 2.5% glutaraldehyde. Subsequently, they were washed three times with PBS and postfixed overnight with 2% OsO4. After washing twice with PBS, cells were stained with 1% uranyl acetate. The samples were dehydrated sequentially in ethanol and acetone and embedded in Epon 812. Ultrathin slices of 60 nm were obtained using an automatic Leica-ultracut R ultramicrotome and observed with a Microscope Zeiss EM900 (Zeiss, Oberkochen, Germany).

[9] = system: T. cruzi (RA strain) infection in BALB/c mice; assay: In vivo trypanocidal activity in murine model of T. cruzi infection; parameters: species or system Trypanosoma cruzi; settings: for Hazard ratio (logrank) vs vehicle: Kaplan–Meier survival; for decrease in the area under the parasitemia curve (AUC): fold vs untreated control group
[10] = LPS 0.5 µg/mL, 1 or 10 µg/mL compound
[11] = read-out: IC50 ± SEM Amastigotes
[12] = value in brackets, read-out: IC50 Amastigotes (converted)
[13] = T. cruzi epimastigotes, 72 h incubation, read-out: IC50 ± SEM Epimastigotes
[14] = T. cruzi epimastigotes, 72 h incubation, value in brackets, read-out: IC50 Epimastigotes (converted)
[15] = primary splenocytes, read-out: CC50 µg/mL ± SEM
[16] = primary splenocytes, read-out: CC50
[17] = infected BALB/c mice, 1 mg/kg/day i.p. each for 5 days

SMILES | IC50 [4, 11] [µg/mL] | IC50 [4, 12] [µM] | IC50 [5, 13] [µg/mL] | IC50 [5, 14] [µM] | CC50 at 48 h [8, 15] [µg/mL] | CC50 at 48 h [8, 16] [µM] | Hazard ratio (logrank) vs vehicle ([9]; 1 mg/kg/day i.p. for 5 days) | decrease in the area under the parasitemia curve (AUC) [9, 17] | also measured
C=C1C(=O)[C@@]23CC[C@@H]4[C@](C)(C(=O)O)CCC[C@@]4(C)[C@]2(O)[C@@H](O)C[C@@H]1C3 (single isomer, unassigned; ent-9) [Compound 1, ent-9α,11α-dihydroxy-15-oxo-kaur-16-en-19-oic acid] | 2.1 ± 0.3 | 6.1 | 3.7 ± 0.5 | 10.6 | 112 ± 3.4 | 322 | 0.9 | two-fold | IL-10 production and secretion [1]: increase in the production and secretion of IL-10; Lucia luciferase activity after LPS stimulation [2, 10]: reduction in enzymatic activity; basal Lucia luciferase activity ([2]; unstimulated control cells, 1 or 10 µg/mL): did not affect the basal levels of Lucia luciferase activity; nitric oxide production (nitrite) with TLR ligands ([3]; CpG 100 µg/mL, Poly(I:C) 100 µg/mL or LPS 0.5 µg/mL, compound 2.5 µg/mL, 24 h): significant decrease in nitric oxide production; nitric oxide production (nitrite levels) after LPS ([3]; LPS-stimulated Raw-Blue macrophages, dose-dependent): significantly inhibited nitric oxide production; iNOS expression and NO production in vitro [6]: inhibit iNOS expression and NO production; NF-kB activation by TLR agonists (SEAP activity) (NF-kB, RAW-Blue cells; CpG 100 µg/mL, Poly(I:C) 100 µg/mL or LPS 0.5 µg/mL, compound 2.5 µg/mL): significantly inhibit NF-kB activation; LPS-mediated activation of NF-kB (SEAP activity) (NF-kB, RAW-Blue cells; [10]): dose-dependent inhibition; TNF levels after LPS stimulation ([7]; LPS 0.5 µg/mL, 1 and 10 µg/mL compound): significantly reduced; basal levels of TNF ([7]; without LPS, increasing concentrations (1, 10 µg/mL)): significant decrease in the basal levels of TNF; ultrastructural effect on epimastigotes (TEM) (T. cruzi epimastigotes; 48 h): formation of abnormal cytosolic membranous structures; ultrastructural effect on epimastigotes (TEM) (T. cruzi epimastigotes; 72 h): Abnormal cytosolic membranous structures; parasitemia levels ([9]; infected BALB/c mice, 1 mg/kg/day i.p. for 5 days, vs vehicle): significant decrease in parasitemia levels
C=C1C(=O)[C@@]23CC[C@H]4[C@@](C)(CCC[C@@]4(C)C(=O)O)[C@@H]2[C@@H](O)C[C@@H]1C3 (single isomer, unassigned; ent-11) [Compound 3, ent-11α-hydroxy-15-oxo-kaur-16-en-19-oic acid] | 20.1 ± 8.2 | 60.6 | 1.6 ± 0.6 | 4.8 |  |  |  |  | CC50 at 48 h ([8]; read-out: CC50 µg/mL ± SEM): 4.9 ± 1.6 µg/mL; CC50 at 48 h ([8]; read-out: CC50): 14.8 µM
O=C(Cn1ccnc1[N+](=O)[O-])NCc1ccccc1 [Benznidazole, benznidazole, reference compound] | 0.5 ± 0.04 | 1.9 |  |  | 45.3 ± 1.8 | 81.5 | 1.1 | 1.6 | IC50 ([5]; 72 h, read-out: IC50 Epimastigotes): 4.2 µM; IC50 ([5]; 72 h, read-out: IC50 ± SEM Epimastigotes): 1.08 ± 0.2 µg/mL; mice remaining alive at the end of the acute infection phase ([9]; 1 mg/kg/day i.p. each for 5 days): none
C[C@H]1C(=O)[C@@]23CC[C@H]4[C@@](C)(CCC[C@@]4(C)C(=O)O)[C@@H]2[C@@H](O)C[C@@H]1C3 [Compound 2, (16R)-ent-11α-hydroxy-15-oxokauran-19-oic acid] | 6.5 ± 0.2 | 19.5 | 5.2 ± 0.3 | 15.9 | 7.8 ± 0.2 | 23.3 |  |  | 
